± gives the uncertainty stated by the source.
Assays:
[1] = xn = mol fraction of the nth substance listed
[2] = 308.15 K; 101.33 kPa

CCOCCO + CCCO
viscosity [mPa·s], [1]
Settings	298.15 K	303.15 K	308.15 K	313.15 K
101 kPa, x1 = 0.069	1.942 ± 0.017	–	–	–
101 kPa, x1 = 0.1429	1.891 ± 0.018	–	–	–
101 kPa, x1 = 0.2223	1.852 ± 0.021	–	–	–
101 kPa, x1 = 0.3078	1.826 ± 0.023	–	–	–
101 kPa, x1 = 0.4001	1.811 ± 0.026	–	–	–
101 kPa, x1 = 0.5001	1.806 ± 0.029	–	–	–
101 kPa, x1 = 0.6088	1.81 ± 0.033	–	–	–
101 kPa, x1 = 0.7273	1.823 ± 0.037	–	–	–
101 kPa, x1 = 0.8572	1.839 ± 0.042	–	–	–
101.33 kPa, x1 = 0.0969	1.815 ± 0.011	1.607 ± 0.01	1.431 ± 0.009	1.272 ± 0.008
101.33 kPa, x1 = 0.199	1.761 ± 0.011	1.56 ± 0.01	1.395 ± 0.009	1.244 ± 0.008
101.33 kPa, x1 = 0.2917	1.73 ± 0.011	1.542 ± 0.01	1.376 ± 0.009	1.235 ± 0.008
101.33 kPa, x1 = 0.3971	1.659 ± 0.011	1.482 ± 0.01	1.326 ± 0.009	1.178 ± 0.008
101.33 kPa, x1 = 0.4928	1.711 ± 0.011	1.521 ± 0.01	1.366 ± 0.009	1.223 ± 0.008
101.33 kPa, x1 = 0.5933	1.721 ± 0.011	1.531 ± 0.01	1.377 ± 0.009	1.233 ± 0.008
101.33 kPa, x1 = 0.6923	1.732 ± 0.012	1.546 ± 0.011	1.386 ± 0.01	1.232 ± 0.009
101.33 kPa, x1 = 0.7987	1.754 ± 0.012	1.567 ± 0.011	1.403 ± 0.01	1.265 ± 0.009
101.33 kPa, x1 = 0.8853	1.774 ± 0.012	1.578 ± 0.011	1.418 ± 0.01	1.402 ± 0.01

CCOCCO + O=[N+]([O-])c1ccccc1
[1], 298.15 K, 101 kPa
Settings	viscosity [mPa·s]
x2 = 0.0476	1.852 ± 0.021
x2 = 0.1095	1.858 ± 0.021
x2 = 0.2104	1.873 ± 0.02
x2 = 0.3134	1.893 ± 0.019
x2 = 0.4103	1.916 ± 0.019
x2 = 0.4566	1.925 ± 0.019
x2 = 0.5011	1.932 ± 0.018
x2 = 0.5459	1.936 ± 0.018
x2 = 0.6004	1.94 ± 0.018
x2 = 0.7008	1.937 ± 0.017
x2 = 0.8017	1.921 ± 0.016
x2 = 0.8989	1.887 ± 0.015
x2 = 0.9525	1.853 ± 0.014

Oc1ccc(Cl)cc1 + CCO
Settings	viscosity [mPa·s]
[1], 298.15 K, 101 kPa, x1 = 0.5	1.454 ± 0.014

CC(C)CCO + CC(C)O
[1], 298.15 K, 101 kPa
Settings	viscosity [mPa·s]
x1 = 0.0665	2.158 ± 0.026
x1 = 0.095	2.195 ± 0.051
x1 = 0.1475	2.277 ± 0.054
x1 = 0.1504	2.279 ± 0.029
x1 = 0.2352	2.411 ± 0.058
x1 = 0.2364	2.41 ± 0.033
x1 = 0.3228	2.562 ± 0.063
x1 = 0.3304	2.572 ± 0.039
x1 = 0.4092	2.707 ± 0.069
x1 = 0.4193	2.736 ± 0.045
x1 = 0.5069	2.896 ± 0.076
x1 = 0.5352	2.948 ± 0.054
x1 = 0.6126	3.093 ± 0.085
x1 = 0.6388	3.125 ± 0.063
x1 = 0.7326	3.271 ± 0.096
x1 = 0.7853	3.365 ± 0.077
x1 = 0.8525	3.477 ± 0.11
x1 = 0.9466	3.651 ± 0.12

Oc1ccc(Cl)cc1 + CCCCN(CCCC)CCCC
[1], 298.16 K, 101 kPa
Settings	viscosity [mPa·s]
x1 = 0.5057	14.04 ± 0.29
x1 = 0.5498	23.8 ± 0.51
x1 = 0.6004	46.15 ± 1.1
x1 = 0.6534	94.2 ± 3.1
x1 = 0.7034	222.8 ± 12
x1 = 0.714	261.7 ± 15
x1 = 0.7471	389.7 ± 27
x1 = 0.7798	438.6 ± 32
x1 = 0.8047	424.7 ± 30
x1 = 0.8194	339.1 ± 21
x1 = 0.8508	228.2 ± 12
x1 = 0.8615	173.1 ± 7.7
x1 = 0.88	141.3 ± 5.6
x1 = 0.9041	99.6 ± 3.2
x1 = 0.915	73.06 ± 1.9
x1 = 0.9457	46.28 ± 0.98
x1 = 0.9798	26.23 ± 0.43
x2 = 0.002811	19.56 ± 0.28

CC(C)CCO + OCCCO
viscosity [mPa·s], [1], 100 kPa
Settings	x1 = 0.0679	x1 = 0.1388	x1 = 0.218	x1 = 0.3009	x1 = 0.4084	x1 = 0.4979	x1 = 0.6034	x1 = 0.7212	x1 = 0.8537
298.15 K	37.92 ± 0.25	35.56 ± 0.23	32.86 ± 0.21	29.98 ± 0.2	26.12 ± 0.17	22.84 ± 0.16	18.89 ± 0.13	14.42 ± 0.11	9.305 ± 0.084
303.15 K	30.13 ± 0.2	28.24 ± 0.19	26.14 ± 0.17	23.83 ± 0.16	20.79 ± 0.14	18.2 ± 0.13	15.09 ± 0.11	11.57 ± 0.094	7.532 ± 0.076
308.15 K	25.86 ± 0.17	24.27 ± 0.16	22.55 ± 0.15	20.66 ± 0.14	18.08 ± 0.13	15.91 ± 0.12	13.3 ± 0.1	10.25 ± 0.088	6.745 ± 0.073

Oc1ccc(Cl)cc1
Settings	viscosity [mPa·s]
[2]	8.228 ± 0.13

Reference: the CheMixHub viscosity set
